Results reported in ChEMBL document CHEMBL3232772, “Spiramine derivatives induce apoptosis of Bax(-/-)/Bak(-/-) cell and cancer cells” (Bioorg Med Chem Lett, 2014).
pIC50: −log10 of the molar value. Activity calls are given as the source filed them. No cut-off for these calls is given here.

Experiments:
SW480 [1] = assay: Cytotoxicity against human SW480 cells after 48 hrs by MTT assay; type: functional, cell-based; settings: SW480, 48 h
A549 = assay: Cytotoxicity against human A549 cells after 48 hrs by MTT assay; type: functional, cell-based; settings: A549, 48 h
MCF7 = assay: Cytotoxicity against human MCF7 cells after 48 hrs by MTT assay; type: functional, cell-based; settings: MCF7, 48 h
MEF [2] = assay: Induction of apoptosis in Bax(-/-)/Bak(-/-) MEF at 10 uM after 24 to 48 hrs; type: functional, cell-based; settings: Mus musculus
HL-60 = assay: Cytotoxicity against human HL60 cells after 48 hrs by MTT assay; type: functional, cell-based; settings: HL-60, 48 h
SMMC-7721 = assay: Cytotoxicity against human SMMC7721 cells after 48 hrs by MTT assay; type: functional, cell-based; settings: SMMC-7721, 48 h
SW480 [3] = assay: Induction of apoptosis in human SW480 cells assessed as early apoptotic cells at 20 uM after 24 hrs using annexin V-FITC and propidium iodide staining by flow cytometry (reference value: 1.4%); type: functional
MEF [4] = assay: Induction of apoptosis in Bax(-/-)/Bak(-/-) MEF assessed as late apoptotic cells at 20 uM after 24 hrs using annexin V-FITC and propidium iodide staining by flow cytometry (reference value: 3.3%); type: functional, Mus musculus
SW480 [5] = assay: Induction of apoptosis in human SW480 cells assessed as activation of caspase activity at 20 uM after 24 hrs by CASPACE-FITC staining (reference value: 6.2%); type: functional
MEF [6] = assay: Induction of apoptosis in Bax(-/-)/Bak(-/-) MEF after 48 hrs; type: functional, cell-based; settings: Mus musculus
MEF [7] = assay: Induction of apoptosis in Bax(-/-)/Bak(-/-) MEF assessed as activation of caspase activity at 20 uM after 24 hrs by CASPACE-FITC staining (reference value: 12.2%); type: functional, Mus musculus
MEF [8] = assay: Induction of apoptosis in Bax(-/-)/Bak(-/-) MEF assessed as early apoptotic cells at 20 uM after 24 hrs using annexin V-FITC and propidium iodide staining by flow cytometry (reference value: 0.6%); type: functional, Mus musculus
SW480 [9] = assay: Induction of apoptosis in human SW480 cells assessed as late apoptotic cells at 20 uM after 24 hrs using annexin V-FITC and propidium iodide staining by flow cytometry (reference value: 1.0%); type: functional
SW480 [10] = assay: Induction of apoptosis in human SW480 cells assessed as activation of caspase activity at 10 uM after 24 hrs by CASPACE-FITC staining (reference value: 6.2%); type: functional
[11] = Cytotoxicity against human MCF7/ADR cells after 48 hrs by MTT assay; type: functional, cell-based; settings: NCI/ADR-RES
MEF [12] = assay: Induction of apoptosis in Bax(-/-)/Bak(-/-) MEF assessed as early apoptotic cells at 10 uM after 24 hrs using annexin V-FITC and propidium iodide staining by flow cytometry (reference value: 0.6%); type: functional, Mus musculus
MEF [13] = assay: Induction of apoptosis in Bax(-/-)/Bak(-/-) MEF assessed as late apoptotic cells at 10 uM after 24 hrs using annexin V-FITC and propidium iodide staining by flow cytometry (reference value: 3.3%); type: functional, Mus musculus
SW480 [14] = assay: Induction of apoptosis in human SW480 cells assessed as late apoptotic cells at 10 uM after 24 hrs using annexin V-FITC and propidium iodide staining by flow cytometry (reference value: 1.0%); type: functional
MEF [15] = assay: Induction of apoptosis in Bax(-/-)/Bak(-/-) MEF assessed as activation of caspase activity at 10 uM after 24 hrs by CASPACE-FITC staining (reference value: 12.2%); type: functional, Mus musculus
NCI/ADR-RES = assay: Resistant factor, ratio of IC50 for human MCF7/ADR cells to IC50 for human MCF7 cells; type: functional
SW480 [16] = assay: Induction of apoptosis in human SW480 cells assessed as early apoptotic cells at 10 uM after 24 hrs using annexin V-FITC and propidium iodide staining by flow cytometry (reference value: 1.4%); type: functional

| Structure (SMILES) | pIC50 (SW480 [1]) | pIC50 (A549) | pIC50 (MCF7) | Activity (MEF [2]) | pIC50 (HL-60) | pIC50 (SMMC-7721) | Activity (SW480 [3]) | Activity (MEF [4]) | Activity (SW480 [5]) | pIC50 (MEF [6]) | Activity (MEF [7]) | Activity (MEF [8]) | Activity (SW480 [9]) | further results |
| --- | --- | --- | --- | --- | --- | --- | --- | --- | --- | --- | --- | --- | --- | --- |
| C=C1C(=O)[C@]23CC[C@H]1C[C@H]2[C@@]12CCC[C@@](C)(CN(CCO[Si](C)(C)C(C)(C)C)C1)[C@H]2C(=C)C3=O | 5.56 | 5.81 | 5.54 | Active | 5.86 | 5.58 |  |  |  |  |  |  |  |  |
| C=C1C(=O)[C@]23CC[C@H]1C[C@H]2[C@@]12CCC[C@@]4(C)C5OCCN5[C@H]1O[C@@H]3C[C@@H]24 (stereo partly drawn) | 5.71 | 5.69 | 6.17 | Active | 5.87 | 5.98 | 16.9% | 86.2% | 18.2% | 5.65 | 87.8% | 1.9% | 15.9% |  |
| C=C1C(=O)[C@]23CC[C@H]1C[C@H]2[C@@]12CCC[C@@](C)(COC1=O)[C@H]2C[C@H]3O | 5.45 | 5.49 | 5.49 | Active | 5.20 | 5.40 |  |  |  | 5.76 |  |  |  |  |
| C=C1C(=O)[C@]23CC[C@H]1C[C@H]2[C@@]12CCC[C@@](C)(C(=O)N4CCO[C@H]41)[C@H]2C[C@H]3O | 5.55 | 5.51 | 5.95 | Active | 5.56 | 5.58 | 46.7% | 68.3% | 60.1% | 5.47 | 93.2% | 21.7% | 40.1% | Activity (SW480 [10]): 12.1%; pIC50 [11]: 5.06; Activity (MEF [12]): 8.6%; Activity (MEF [13]): 2.1%; Activity (SW480 [14]): 8.6%; Activity (MEF [15]): 14.3%; Ratio IC50 (NCI/ADR-RES): 1.66; Activity (SW480 [16]): 25.5% |
| C=C1C(=O)[C@]23CC[C@H]1C[C@H]2[C@@]12CCC[C@@]4(C)CN(CCO)[C@H]1O[C@@H]3C[C@H]42 | 4.85 | 4.73 | 4.99 | Active | 4.72 | 4.63 |  |  |  |  |  |  |  |  |
| COc1cccc2c1C(=O)c1c(O)c3c(c(O)c1C2=O)C[C@@](O)(C(=O)CO)C[C@@H]3O[C@H]1C[C@H](N)[C@H](O)[C@H](C)O1 [DOXORUBICIN] |  |  | 7.11 |  |  |  |  |  |  |  |  |  |  | pIC50 [11]: 4.16; Ratio IC50 (NCI/ADR-RES): 888.75 |
| C=C1C(=O)[C@]23CC[C@H]1C[C@H]2[C@@]12CCC[C@@]4(C)C(=O)N(CCO)[C@H]1O[C@@H]3C[C@@H]24 | 4.91 | 4.75 | 4.88 | Active | 4.73 | 4.74 |  |  |  |  |  |  |  |  |
| C=C1C(=O)[C@@]23CC[C@@H](C[C@H]2[C@@]24CCC[C@@](C)(CN(CCO)C2)[C@@H]14)C(=C)[C@@H]3O | 5.01 | 5.52 | 5.16 | Active | 5.32 | 5.83 |  |  |  |  |  |  |  |  |
| C=C1C(=O)[C@]23CC[C@H]1C[C@H]2[C@@]12CCC[C@@](C)(CN(CCO)C1)[C@H]2CC3=O | 4.93 | 5.03 | 4.80 | Active | 4.84 | 4.82 | 10.9% | 52.2% | 10.9% | 5.34 | 66.6% | 11.7% | 13.3% |  |
| C=C1C(=O)[C@]23CC[C@H]1C[C@H]2[C@@]12CCC[C@@](C)(CN(CCO)C1)[C@H]2C(=C)C3=O | 5.55 | 5.19 | 5.45 | Active | 5.18 | 4.94 | 13.1% | 76.8% | 29.8% | 5.74 | 97.1% | 28.2% | 44.2% |  |
| C=C1C(=O)[C@]23CC[C@H]1C[C@H]2[C@@]12CCC[C@@]4(C)C(=O)N[C@H]1O[C@@H]3C[C@@H]24 | 4.85 | 4.72 | 4.80 | Active | 4.73 | 4.80 |  |  |  |  |  |  |  | pIC50 [11]: 4.55; Ratio IC50 (NCI/ADR-RES): 1.4 |
| C=C1C(=O)[C@]23CC[C@H]1C[C@H]2[C@@]12CCC[C@@](C)(CN(CCO)C1)[C@H]2C[C@H]3O | 4.84 | 5.00 | 4.78 | Active | 5.10 | 4.95 |  |  |  |  |  |  |  |  |
